Experimental data from patent US20070293422A1, “Beta-Amyloid Inhibitors and Use Thereof” (priority 2003, published 2007).
pIC50: −log10 of the molar value.

What was measured:
Aβ1-42 (SEQ ID NO: 11) = biological target: T1, Aβ1-42 (SEQ ID NO: 11) (Homo sapiens, UniProt P05067); experiment: Thioflavine T fluorescence assay of Aβ1-42 amyloid fibril formation (fibrillogenesis assay); assay type: biochemical
T1 construct: purchased BACHEM H-1368.1000
Experimental: The percentage of formed fibrils after 2 days incubation with 110 μM of Aβ1-42 (SEQ ID NO: 11) at 37° C. is represented versus the concentration of the peptides of the invention (in μM). 100% of formed fibrils correspond to the fibrils formed in presence of Aβ1-42 alone. Triangles represent data for pAntp (SEQ ID NO: 4) and squares represent data for pAntp-BSB1 (SEQ ID NO: 6). The percentage of formed fibrils for peptides of the invention is compared to that obtained for a known beta-sheet breaker, BSB1 of SEQ ID NO: 5 (Lozenges). Data are the result of three independent experiments in duplicate.
Amyloid formation can be quantitatively evaluated by the fluorescence emission of thioflavine T (ThT) bound to amyloid fibrils, as reported by Levine et al., 1993 and also Soto et al., 1995.
In this assay, peptides of the invention were solubilized in water at different concentration in small Eppendorff tubes and lyophilized.
Ab1-42 (a synthetic peptide with the same sequence as the one deposited in the amyloid plaques in Alzheimer's brain, SEQ ID NO: 11) was solubilized at the concentration of 1 mg/ml in 2 mM NaOH. Aliquots were lyophilized (storage −80° C.). Several aliquots of Ab1-42 at a concentration of 0.5 mg/ml ([…]) were prepared in 0.1M Tris, pH 7.4 and incubated for 2 or 5 days at 37° C. in the absence or in the presence of different concentrations of the pre-lyophilized peptides of the invention (ranged from […]). Thioflavin T was purchased from Sigma (T-3516). For example, 120 μg of Ab1-42 and mixed to 1 μl of DMSO and 239 μl of 0.1M Tris, pH 7.4. From this solution, 120 μl are incubated 5 days at 37° C. and 120 μl are used to solubilize the peptide of the invention at the desired concentration and incubated 5 days at 37° C.
At the end of the incubation period, 50 mM Glycine, pH 9.2 and 2 μM ThT are added to the incubated mixture described above in a final volume of […] (850 μl of pure water, 200 μl of 50 mM Glycine, pH 9.2 and 40 μl of Thioflavin T (1 mM in pure water) are added to 60 μl of sample.
Fluorescence is measured at excitation 435 nm and emission 485 nm in a Perkin Elmer, model LS50B fluorescence spectrometer. Measurements are carried out after the signal is stable for at least 1-2 min. The initial value of fluorescence represents the fluorescence obtained with Ab1-42 peptide alone (highest concentration of fibrils) representing 100% of formed fibrils.
The percentage of inhibition of Ab1-42 fibril formation induced by compounds of the invention can be calculated using an analytical method such as described in Soto et al., 1998.

PC12 cells = assay type: cell-based
Experimental: Amyloid fibrils are cytotoxic, inducing cell death by apoptosis (Levine et al., 1993). The ability of the compounds of the invention in preventing the amyloid formation can be evaluated by measuring the decrease in the amyloid fibrils cytotoxicity in a cell assay. Toxicity was measured by comparing the effects of samples of Ab1-42 (SEQ ID NO: 11) alone or of mixtures of Ab1-42 combined with the peptides of the invention, on the reduction of the redox active dye, 3-(4,5-dimethylthiazol-2-yl)-2,5-diphenyltetrazolium bromide (MTT) by PC12 cells. […] The cells are incubated for 24 h and thereafter the cellular viability was evaluated using the MTT kit (Kit I (MTT), No. 1 465 007 Roche, Mannheim, Germany). Levels of reduced MTT are determined by measuring the difference in absorbance at 595 and 650 nm using a microplate reader and the extend of cellular viability is then deduced Maximum fibril inhibition is obtained at a peptide concentration of 8 mM for the reference compound of SEQ ID NO: 5 in the fibrillogenesis assay described above. […] Cellular viability is then measured for peptides of the invention by adding the fibrillogenesis assay mixtures containing 1 mM of peptide of the invention (concentration where maximum fibril inhibition is obtained for peptides of the invention) to the PC12 cells after a 20-fold dilution. […]

T1 sequence (P05067 672-713): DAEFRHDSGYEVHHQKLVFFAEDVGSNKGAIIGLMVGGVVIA

Row | Compound | inhibition (Aβ1-42 (SEQ ID NO: 11); 500 μM peptide, Ab1-42 in 0.1M Tris pH 7.4, 37° C., read-out: % Inhibition of amyloid fibrils) [%] | inhibition of the fibrillogenesis process (FIG. 1) (Aβ1-42 (SEQ ID NO: 11); 2 days incubation with 110 μM Aβ1-42 at 37° C.) | pIC50 (Aβ1-42 (SEQ ID NO: 11); ThT fluorescence, Ab1-42 0.5 mg/ml, 37° C., read-out: IC50 (inhibition of Ab1-42 fibril formation)) | inhibiting effect on beta-amyloid cellular toxicity compared with BSB1 (PC12 cells; PC12 cells, MTT) | % cell viability (PC12 cells; rat, 24 h, 50 µM) [%] | % Inhibition of amyloid fibrils (Aβ1-42 (SEQ ID NO: 11); 500 μM peptide, Ab1-42 0.5 mg/ml in 0.1M Tris pH 7.4, 37° C.) [%] | peptide concentration above which the % of fibrils reaches a plateau (Aβ1-42 (SEQ ID NO: 11); FIG. 1, 110 μM Aβ1-42, 37° C.) | peptide concentration at which maximum fibril inhibition is obtained (Aβ1-42 (SEQ ID NO: 11); fibrillogenesis assay) [mM]
1 | CC[C@H](C)[C@H](NC(=O)[C@H](CCCCN)NC(=O)[C@@H](NC(=O)[C@H](CCC(N)=O)NC(=O)[C@@H](N)CCCNC(=N)N)[C@@H](C)CC)C(=O)N[C@@H](Cc1c[nH]c2ccccc12)C(=O)N[C@@H](Cc1ccccc1)C(=O)N[C@@H](CCC(N)=O)C(=O)N[C@@H](CC(N)=O)C(=O)N[C@@H](CCCNC(=N)N)C(=O)N[C@@H](CCCNC(=N)N)C(=O)N[C@@H](CCSC)C(=O)N[C@@H](CCCCN)C(=O)N[C@@H](Cc1c[nH]c2ccccc12)C(=O)N[C@@H](CCCCN)C(=O)N[C@@H](CCCCN)C(=O)N[C@@H](CC(C)C)C(=O)N1CCC[C@H]1C(=O)N[C@@H](Cc1ccccc1)C(=O)N[C@@H](Cc1ccccc1)C(=O)N[C@@H](CC(=O)O)C(N)=O [SEQ ID NO: 6] | 57 | high degree of inhibition | ~4.01 | higher inhibiting effect on the beta-amyloid cellular toxicity than the beta-sheet breaker itself | 166 |  |  | 
2 | SEQ ID NO: 5: known beta-sheet breaker BSB1 (WO 01/34631), reference peptide (Ac-LPFFD-NH2) [reference compound] |  |  |  |  |  | 15 | does not reach a plateau limit | 8
